This is an account of results in paper PMC6151435, “Bioactivity In Vitro of Quercetin Glycoside Obtained in Beauveria bassiana Culture and Its Interaction with Liposome Membranes” (Molecules : A Journal of Synthetic Chemistry and Natural …, 2017).

Each structure is given as a SMILES string. Like-named read-outs stand apart in the source and are kept apart here.

The nature of assay [1]: 1H-NMR study of interaction with DPPC liposomes (PrCl3 shift reagent). Conditions: 0.24 mM compound. On the procedure:
The ^1H-NMR method of investigating the Q 7-MeGlu and Q interaction with liposomes was described earlier by Gabrielska et al. with minor modifications. Mixtures of phospholipids (DPPC) with studied compounds were co-dissolved in a chloroform/methanol mixture (55:1 v/v) at the respective concentrations. The lipid concentration in the sample was 36 mM and that of Q 7-MeGlu and Q was 0.24 mM […]. The samples were first evaporated under a stream of nitrogen and then in a vacuum (overnight). Then the samples were hydrated with D2O and vigorously shaken (15 min) at temperature above the main phase transition of lipid (41 °C) until optical homogeneity of the mixture was reached. Next, the lipid suspension was sonicated with a 20 kHz sonicator (20 kHz, Sonic, Italy) to yield a homogeneous lipid dispersion. Briefly, before the measurements a 4 mM praseodymium trichloride (PrCl3 × 6H2O) in heavy water solution […] was added to the sample of 0.6 mL liposome suspension. ^1H-NMR parameters were as follows: spectral window 12.019 Hz, digital resolution 0.183 Hz, acquisition and delay times 2.73 s and 1.00 s, respectively, and acquisition temperature 325 K. The experiment was performed in two replicates.

In the next assay the target is T1, COX-2 (Homo sapiens, UniProt P35354).
T1 construct: purchased Sigma-Aldrich
T1 sequence (P35354 18-604): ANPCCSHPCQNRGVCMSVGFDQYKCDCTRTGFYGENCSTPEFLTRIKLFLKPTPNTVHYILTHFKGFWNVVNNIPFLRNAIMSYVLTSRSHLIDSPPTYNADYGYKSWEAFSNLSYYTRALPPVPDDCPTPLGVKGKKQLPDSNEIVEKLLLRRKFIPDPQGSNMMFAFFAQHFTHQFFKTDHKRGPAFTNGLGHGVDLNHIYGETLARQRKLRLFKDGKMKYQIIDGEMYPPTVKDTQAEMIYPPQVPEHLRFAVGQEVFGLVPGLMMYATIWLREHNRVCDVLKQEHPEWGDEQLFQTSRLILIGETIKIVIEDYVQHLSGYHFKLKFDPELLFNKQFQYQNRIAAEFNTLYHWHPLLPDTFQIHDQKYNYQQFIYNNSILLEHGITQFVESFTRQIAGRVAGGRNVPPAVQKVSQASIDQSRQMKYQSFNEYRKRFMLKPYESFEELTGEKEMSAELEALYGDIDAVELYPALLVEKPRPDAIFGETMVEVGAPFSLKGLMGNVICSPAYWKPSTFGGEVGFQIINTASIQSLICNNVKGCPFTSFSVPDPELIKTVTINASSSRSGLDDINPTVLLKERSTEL
Nature of the assay: Inhibition of cyclooxygenase 2 (spectrophotometric, TMPD). Type of assay: biochemical. The text has this: The probes 1,6-diphenyl-1,3,5-hexatriene (DPH), 3-[p-(6-phenyl)-1,3,5-hexatrienyl]propionic acid (DPH-PA), Merocyanine 540 (MC540), and N,N,N-trimethyl-4-(6-phenyl-1,3,5-hexatrien-1-yl)phenylammonium p-toluenesulfonate (TMA-DPH) were purchased from Molecular Probes (Eugene, OR, USA). Tris (hydroxymethyl) aminomethane (Tris:HCl) were obtained from “Chempur” (Piekary Śląskie, Poland). Quercetin (Q) was purchased from Sigma-Aldrich.
This experiment, established on the basis of a modified method given in the work by Jang and Pezzuto [68], was conducted by a spectrophotometric measurement of inhibition of the cyclooxygenases’ activity COX-1 and COX-2. […] To initiate the reaction, arachidonic acid was added at a concentration of 35 mM. The final volume of the sample was 1 mL. […] The measurements were carried out at room temperature. The control sample contained the right amount of solvent (methanol) instead of the studied compounds. […] The experiment was performed in five replicates (n = 5).

Assay [2] in a line: Liposome oxidation assay (AAPH-induced oxidation, DPH-PA probe). Format: biochemical. Particulars: for IC50: 30 min oxidation, 37 °C, pH 7.4, read-out: IC50 AAPH PC (inhibition of AAPH induced oxidation of phosphatidylcholine liposomes). The procedure:
Small unilamellar liposomes (SUV) consisted of phosphatidylcholine (egg-PC) were prepared in accordance with the methodology described by Gabrielska and Oszmiański. The lipids were dissolved in chloroform (100 mg/mL), evaporated to dryness under nitrogen and under vacuum for another 60 min. Subsequently, a phosphate buffer […] of pH 7.4 was added and liposomes were formed by mechanical shaking. Then SUVs were formed using a 20 kHz sonicator for 15 min. During sonication the samples were thermostated at 0–2 °C. In the study, PC liposomes at a concentration of 0.1 mg/mL in phosphate buffer (pH 7.4) were used. Liposomes prepared according to the presented-above procedure were used to determine the antioxidative activity and in fluorometric studies.
Antioxidant activities of Q 7-MeGlu and Q were determined using a fluorometric method described earlier by Strugała et al. with minor modifications. The studies were carried out on PC liposomes, which contained the fluorescent probe DPH-PA. Use was made of the relationship between DPH-PA fluorescence intensity and concentration of free radicals. The probe’s fluorescence decreased with its rising oxidation caused by free radicals, supplied by AAPH. Molecules of this compound underwent thermal decomposition into two free radicals each. The value of relative intensity of DPH-PA fluorescence was adopted as a measure of the degree of lipid membrane oxidation. It was calculated as a ratio of fluorescence intensity after 30 min of oxidation in the presence of antioxidants to the initial value of the intensity. The studied polyphenolic compounds scavenged free radicals and thus caused a lower rate of DPH-PA fluorescence decrease. PC liposomes at a concentration of 0.1 mg/mL in phosphate buffer (pH 7.4) were used, incubated for 0.5 h in darkness with addition of DPH-PA probe at a concentration of 1 µM (stock solutions were prepared in DMF). […] The wavelengths of excitation and emission for the probe were as follows: λex = 355 nm, λem = 430 nm. Oxidation was initiated just before measurement, using AAPH at a concentration of […] (dissolved in water) at 37 °C (control sample), or in the presence of test substances (Q 7-MeGlu and Q). The concentrations of studied compounds fluctuated in the range 3–7 µM for Q 7-MeGlu and 2–5 µM for Q. The measurements were conducted with a Cary Eclipse fluorimeter.

One may read the IC50 as the concentration needed to halve the response being measured. With `CO[C@H]1[C@H](O)[C@@H](O)[C@H](Oc2cc(O)c3c(=O)c(O)c(-c4ccc(O)c(O)c4)oc3c2)O[C@@H]1CO` [Q 7-MeGlu, quercetin 7-O-β-D-(4″-O-methyl)glucopyranoside], in assay [1], the “decrease (Δδ) in the splitting parameter of polar head groups resonance” value is given as 56%, the “decrease of the Iout/Iin ratio vs pure DPPC” value is on record as 13% and the “increase in the half width of the membrane surface signal vs pure DPPC” value was around 142%. In addition, the IC50 on COX-2 (Tris-HCl pH 8.0, room temperature, read-out: IC50 COX-2) amounted to 49.2 ± 5.55 µM. In assay [2], the IC50 was determined as 5.47 ± 0.47 µM. Besides, in assay [2] (from IC50 values), the “antioxidative activity, fold higher than L-(+)-ascorbic acid” value is given as “ca. 24 fold” and the “antioxidative activity, fold lower than quercetin” value is listed as “ca. 1.2 fold”.
Consider `O=c1c(O)c(-c2ccc(O)c(O)c2)oc2cc(O)cc(O)c12` [Quercetin, 3,3′,4′,5,7-pentahydroxyflavone], for which, in assay [1], the “decrease (Δδ) in the splitting parameter of polar head groups resonance” value came to 32%, the “decrease in full width at half height (ν) of band of terminal methyl group” value came to 4%, the “increase in the half width of the membrane surface signal vs pure DPPC” value is on record as “approximately 119%” and the “increase of the Iout/Iin ratio vs pure DPPC” value came out at 33%. In addition, the IC50 against COX-2 worked out at 17 ± 2.43 µM. In addition, the IC50 in assay [2] turned out to be 4.49 ± 0.24 µM.
